Experimental data published in paper doi:10.1101/2024.08.19.608619, “Discovery of potent SARS-CoV-2 nsp3 macrodomain inhibitors uncovers lack of translation to cellular antiviral response” (bioRxiv, 2024).
In brackets after ≈: the same amount, converted by molar mass.

System: HeLa-ACE2 cells
Assay: not given
Settings: HeLa-ACE2 cytotoxicity

`CC(C)(C)[C@H](Nc1ncnc2[nH]c(-c3cnn(CC(N)=O)c3)cc12)c1ccc2c(c1)OCCO2` (single isomer, unassigned) [ASAP-0012330] and `CC(C)[C@H](Nc1ncnc2[nH]c(-c3cnn(C)c3C#N)cc12)c1ccc2c(c1)NC(=O)CO2` (single isomer, unassigned) [ASAP-0013255] cannot be ordered by CC50: greater than 20 µM for the first, greater than 20 µM for the second.

For `CC(C)(C)[C@H](Nc1ncnc2[nH]c(-c3cnn(CC(N)=O)c3)cc12)c1ccc2c(c1)OCCO2` (single isomer, unassigned) [ASAP-0012330], the cc10 was greater than 20.0 µM.
With `CC(C)[C@H](Nc1ncnc2[nH]c(-c3cnn(C)c3C#N)cc12)c1ccc2c(c1)NC(=O)CO2` (single isomer, unassigned) [ASAP-0013255] the cc10 was greater than 20.0 µM.

Same assay, conditions: HeLa-ACE2 cytotoxicity; highest measured response of the dose series

Compared with `CC(C)(C)[C@H](Nc1ncnc2[nH]c(-c3cnn(CC(N)=O)c3)cc12)c1ccc2c(c1)OCCO2` (single isomer, unassigned) [ASAP-0012330], `CC(C)[C@H](Nc1ncnc2[nH]c(-c3cnn(C)c3C#N)cc12)c1ccc2c(c1)NC(=O)CO2` (single isomer, unassigned) [ASAP-0013255] is lower in perc_max_measured: 98.779% for the first, 92.424% for the second.

Same assay, conditions: HeLa-ACE2 cytotoxicity; lowest measured response of the dose series

Compared with `CC(C)(C)[C@H](Nc1ncnc2[nH]c(-c3cnn(CC(N)=O)c3)cc12)c1ccc2c(c1)OCCO2` (single isomer, unassigned) [ASAP-0012330], `CC(C)[C@H](Nc1ncnc2[nH]c(-c3cnn(C)c3C#N)cc12)c1ccc2c(c1)NC(=O)CO2` (single isomer, unassigned) [ASAP-0013255] is lower in perc_min_measured: 88.572% for the first, 38.485% for the second.

System: SARS-CoV-2, isolate USA-WA1/2020
Assay: microbe, parasite or virus in culture
Format: cell-based
Settings: HeLa-ACE2 SARS-CoV-2 antiviral effect without P-gp inhibitor; maximum measured response of dose series

First: CC(C)(C)[C@H](Nc1ncnc2[nH]c(-c3cnn(CC(N)=O)c3)cc12)c1ccc2c(c1)OCCO2 (single isomer, unassigned) [ASAP-0012330]
Second: CC(C)[C@H](Nc1ncnc2[nH]c(-c3cnn(C)c3C#N)cc12)c1ccc2c(c1)NC(=O)CO2 (single isomer, unassigned) [ASAP-0013255]
The perc_max_measured of the first is higher: 108.484% for the first, 72.17% for the second.

Same assay, conditions: HeLa-ACE2 SARS-CoV-2 antiviral effect without P-gp inhibitor; minimum measured response of dose series

First: CC(C)(C)[C@H](Nc1ncnc2[nH]c(-c3cnn(CC(N)=O)c3)cc12)c1ccc2c(c1)OCCO2 (single isomer, unassigned) [ASAP-0012330]
Second: CC(C)[C@H](Nc1ncnc2[nH]c(-c3cnn(C)c3C#N)cc12)c1ccc2c(c1)NC(=O)CO2 (single isomer, unassigned) [ASAP-0013255]
The perc_min_measured of the first is higher: 91.129% for the first, 6.652% for the second.

Same assay, conditions: HeLa-ACE2 SARS-CoV-2 antiviral effect without P-gp inhibitor; read-out: ec50

Going from `CC(C)(C)[C@H](Nc1ncnc2[nH]c(-c3cnn(CC(N)=O)c3)cc12)c1ccc2c(c1)OCCO2` (single isomer, unassigned) [ASAP-0012330] to `CC(C)[C@H](Nc1ncnc2[nH]c(-c3cnn(C)c3C#N)cc12)c1ccc2c(c1)NC(=O)CO2` (single isomer, unassigned) [ASAP-0013255], the EC50 falls from greater than 20 µM to 1.33 µM. The second is the more potent here.

Same assay, conditions: HeLa-ACE2 SARS-CoV-2 antiviral effect without P-gp inhibitor; read-out: ec90

`CC(C)(C)[C@H](Nc1ncnc2[nH]c(-c3cnn(CC(N)=O)c3)cc12)c1ccc2c(c1)OCCO2` (single isomer, unassigned) [ASAP-0012330] and `CC(C)[C@H](Nc1ncnc2[nH]c(-c3cnn(C)c3C#N)cc12)c1ccc2c(c1)NC(=O)CO2` (single isomer, unassigned) [ASAP-0013255] cannot be ordered by EC90: greater than 20 µM for the first, greater than 20 µM for the second.

System: not listed separately
Assay: LogD
Settings: pH 7.4; In vitro LogD

Going from `CC(C)(C)[C@H](Nc1ncnc2[nH]c(-c3cnn(CC(N)=O)c3)cc12)c1ccc2c(c1)OCCO2` (single isomer, unassigned) [ASAP-0012330] to `CC(C)[C@H](Nc1ncnc2[nH]c(-c3cnn(C)c3C#N)cc12)c1ccc2c(c1)NC(=O)CO2` (single isomer, unassigned) [ASAP-0013255], the logd rises from 3.0 to 4.4.

System: not listed separately
Assay: Hepatic microsomal stability, HLM
Format: in vitro ADME, human
Settings: In vitro human liver microsomal stability

`CC(C)(C)[C@H](Nc1ncnc2[nH]c(-c3cnn(CC(N)=O)c3)cc12)c1ccc2c(c1)OCCO2` (single isomer, unassigned) [ASAP-0012330] and `CC(C)[C@H](Nc1ncnc2[nH]c(-c3cnn(C)c3C#N)cc12)c1ccc2c(c1)NC(=O)CO2` (single isomer, unassigned) [ASAP-0013255] are within 1.5-fold of each other in clint: 153.0 µL/min/mg for the first, 115.0 µL/min/mg for the second.

Going from `CC(C)(C)[C@H](Nc1ncnc2[nH]c(-c3cnn(CC(N)=O)c3)cc12)c1ccc2c(c1)OCCO2` (single isomer, unassigned) [ASAP-0012330] to `CC(C)[C@H](Nc1ncnc2[nH]c(-c3cnn(C)c3C#N)cc12)c1ccc2c(c1)NC(=O)CO2` (single isomer, unassigned) [ASAP-0013255], the perc_remaining rises from 9.0% to 16.0%.

`CC(C)(C)[C@H](Nc1ncnc2[nH]c(-c3cnn(CC(N)=O)c3)cc12)c1ccc2c(c1)OCCO2` (single isomer, unassigned) [ASAP-0012330] and `CC(C)[C@H](Nc1ncnc2[nH]c(-c3cnn(C)c3C#N)cc12)c1ccc2c(c1)NC(=O)CO2` (single isomer, unassigned) [ASAP-0013255] are within 1.5-fold of each other in t_half: 10.9 min for the first, 14.6 min for the second.

Same assay, conditions: In vitro human liver microsomal stability; no cofactor

Going from `CC(C)(C)[C@H](Nc1ncnc2[nH]c(-c3cnn(CC(N)=O)c3)cc12)c1ccc2c(c1)OCCO2` (single isomer, unassigned) [ASAP-0012330] to `CC(C)[C@H](Nc1ncnc2[nH]c(-c3cnn(C)c3C#N)cc12)c1ccc2c(c1)NC(=O)CO2` (single isomer, unassigned) [ASAP-0013255], the perc_remaining_no_cofactor rises from 100.0% to 101.0%.

System: not listed separately
Assay: In vitro kinetic solubility
Settings: In vitro kinetic solubility, ph 7.4

Compared with `CC(C)(C)[C@H](Nc1ncnc2[nH]c(-c3cnn(CC(N)=O)c3)cc12)c1ccc2c(c1)OCCO2` (single isomer, unassigned) [ASAP-0012330], `CC(C)[C@H](Nc1ncnc2[nH]c(-c3cnn(C)c3C#N)cc12)c1ccc2c(c1)NC(=O)CO2` (single isomer, unassigned) [ASAP-0013255] is 3.4-fold lower in solubility_mean: 89 µM (≈ 41.1 µg/mL) for the first, 26 µM (≈ 11.5 µg/mL) for the second.

System: not listed separately
Assay: in vitro
Settings: human, hela-ace2 cells, 50.0

`CC(C)(C)[C@H](Nc1ncnc2[nH]c(-c3cnn(CC(N)=O)c3)cc12)c1ccc2c(c1)OCCO2` (single isomer, unassigned) [ASAP-0012330] and `CC(C)[C@H](Nc1ncnc2[nH]c(-c3cnn(C)c3C#N)cc12)c1ccc2c(c1)NC(=O)CO2` (single isomer, unassigned) [ASAP-0013255] cannot be ordered by CC50 at 24 h: greater than 20 µM for the first, greater than 20 µM for the second.

System: not listed separately
Assay: Permeability Papp (AB) MDR1/MDCKII
Settings: In vitro MDR1-MDCKII permeability, A to B, mean

Work on `CC(C)[C@H](Nc1ncnc2[nH]c(-c3cnn(C)c3C#N)cc12)c1ccc2c(c1)NC(=O)CO2` (single isomer, unassigned) [ASAP-0013255] yielded a papp_a_to_b_mean of 1.22 ×10⁻⁶ cm/s.

Same assay, conditions: In vitro MDR1-MDCKII permeability, A to B, no inhibitor

`CC(C)(C)[C@H](Nc1ncnc2[nH]c(-c3cnn(CC(N)=O)c3)cc12)c1ccc2c(c1)OCCO2` (single isomer, unassigned) [ASAP-0012330] showed a papp_a_to_b_mean of 0.364 ×10⁻⁶ cm/s.

Same assay, conditions: In vitro MDR1-MDCKII permeability, recovery A to B, mean

For `CC(C)[C@H](Nc1ncnc2[nH]c(-c3cnn(C)c3C#N)cc12)c1ccc2c(c1)NC(=O)CO2` (single isomer, unassigned) [ASAP-0013255], the perc_recovery_a_to_b_mean was 51.1%.

Same assay, conditions: In vitro MDR1-MDCKII permeability, recovery A to B, no inhibitor

Work on `CC(C)(C)[C@H](Nc1ncnc2[nH]c(-c3cnn(CC(N)=O)c3)cc12)c1ccc2c(c1)OCCO2` (single isomer, unassigned) [ASAP-0012330] yielded a perc_recovery_a_to_b_mean of 67.4%.

System: not listed separately
Assay: Hepatic microsomal stability, MLM
Format: in vitro ADME
Settings: In vitro mouse liver microsomal stability

Compared with `CC(C)(C)[C@H](Nc1ncnc2[nH]c(-c3cnn(CC(N)=O)c3)cc12)c1ccc2c(c1)OCCO2` (single isomer, unassigned) [ASAP-0012330], `CC(C)[C@H](Nc1ncnc2[nH]c(-c3cnn(C)c3C#N)cc12)c1ccc2c(c1)NC(=O)CO2` (single isomer, unassigned) [ASAP-0013255] is 1.8-fold higher in clint: 44.0 µL/min/mg for the first, 81.0 µL/min/mg for the second.

Compared with `CC(C)(C)[C@H](Nc1ncnc2[nH]c(-c3cnn(CC(N)=O)c3)cc12)c1ccc2c(c1)OCCO2` (single isomer, unassigned) [ASAP-0012330], `CC(C)[C@H](Nc1ncnc2[nH]c(-c3cnn(C)c3C#N)cc12)c1ccc2c(c1)NC(=O)CO2` (single isomer, unassigned) [ASAP-0013255] is lower in perc_remaining: 48.0% for the first, 27.0% for the second.

First: CC(C)(C)[C@H](Nc1ncnc2[nH]c(-c3cnn(CC(N)=O)c3)cc12)c1ccc2c(c1)OCCO2 (single isomer, unassigned) [ASAP-0012330]
Second: CC(C)[C@H](Nc1ncnc2[nH]c(-c3cnn(C)c3C#N)cc12)c1ccc2c(c1)NC(=O)CO2 (single isomer, unassigned) [ASAP-0013255]
The t_half of the first is 1.9-fold higher: 38.3 min for the first, 20.7 min for the second.

Same assay, conditions: In vitro mouse liver microsomal stability, no cofactor

First: CC(C)(C)[C@H](Nc1ncnc2[nH]c(-c3cnn(CC(N)=O)c3)cc12)c1ccc2c(c1)OCCO2 (single isomer, unassigned) [ASAP-0012330]
Second: CC(C)[C@H](Nc1ncnc2[nH]c(-c3cnn(C)c3C#N)cc12)c1ccc2c(c1)NC(=O)CO2 (single isomer, unassigned) [ASAP-0013255]
The perc_remaining_no_cofactor of the first is higher: 105.0% for the first, 96.0% for the second.
